In patent publication US10196604B2, “Mitochondrial inhibitors for use in culturing pluripotent stem cells” (The Board of Trustees of the Leland Stanford Junior …, priority 2014, dated 2019):
One block for each compound: values may come before it.

What was measured:
OCT4 = test: qRT-PCR gene expression in hES cells: OCT4; assay type: cell-based, human; conditions: 72 hours
Description: (§1) Total cellular RNA was extracted from cells using TRIzol (Invitrogen) and DNase treated with the DNA-free kit (Ambion, Austin, Tex., http (colon slash slash) www (dot) ambion.com) following manufacturer's directions for stringent conditions. RNA was dialyzed for 30 minutes against milliqwater, 10 mM Tris and 1 mM EDTA adjusted to pH 7.5 with HCL (all from Fisher). cDNA was synthesized using GeneAmp RNA PCR kit from Applied Biosciences (Fisher) and no-RT reactions were performed without reverse transcriptase and RNase inhibitor enzymes. One microgram of RNA was used, following manufacturer's directions. Quantitative real time polymerase chain reaction (qPCR) was performed to determine relative mRNA expression levels. Expression fold changes were calculated using the ΔΔCt method and normalized using the housekeeping gene, β-ACTIN as an internal control. Taqman master mix and gene assays with water only were used as a negative control. mRNA expression assays were analyzed in a triplicate PCR reaction with no-RT negative controls and each experiment was performed at least three independent times. Primers for OCT4 and NANOG were selected from predeveloped Applied Biosystems TaqMan Assays, which are pre-designed qPCR primers and TaqMan MGB probes; Oct-4 (Hs01895061_u1) and Nanog (Hs02387400_g1) were selected. Primers for SURVIVIN were: […]
(§2) Based on the toxicity results, nine of the above twelve compounds in Example 1 were selected for further screening to assess their effects on the expression of OCT4, NANOG and SURVIVIN in human embryonic stem cells. The results are summarized in Table 2, along with the mitochondrial inhibition activities for these compounds which were disclosed in US20110301180A1 to Collman et al. the content of which has been incorporated herein by reference.
(§3) The pluripotency of these cultured human embryonic stem cells were characterized by the marker gene expression as analyzed by Quantitative Reverse Transcriptase PCR (qRT-PCR). All compounds were tested at 1 mM concentration for 72 hours except for compound 1 which was tested at 10 μM. The reversibility of mitochondrial inhibition is presented in the right column.

SURVIVIN = test: qRT-PCR gene expression in hES cells: SURVIVIN; assay type: cell-based; conditions: Homo sapiens, 72 hours, normalized to β-ACTIN, read-out: Expression relative to control, SURVIVIN; for fold induction at 1000 µM: 1 mM
Description: as §1, §2, §3

NANOG [1] = test: qRT-PCR gene expression in hES cells: NANOG; assay type: cell-based; conditions: Homo sapiens, 72 hours, normalized to β-ACTIN, read-out: Expression relative to control, NANOG; for fold induction at 1000 µM: 1 mM
Description: as §1, §2, §3

SURVIVIN, OCT4 and NANOG = test: qRT-PCR of the three probed genes together (SURVIVIN, OCT4, NANOG) in hES cells; assay type: cell-based, human; conditions: 72 hours
Description: as §1, §2, §3

NANOG [2] = conditions: human embryonic stem cells; cited from earlier work
[3] = test system: mitochondrial respiration; conditions: cited from earlier work; for Inhibition/Reversibility in mitochondrial inhibition: disclosed in US20110301180A1; for mitochondrial inhibition IC50: values from US 20110301180
[4] = test system: human embryonic stem cells; test: Toxicity testing of mitochondrial inhibitors on hES cells (72 hr culture, crystal violet staining); conditions: for nontoxic concentration (no toxicity up to): tested from 0.1 mM to 50 mM
Description: Human ES cells, WA09 (WiCell Research Institute, Madison, Wis.) were cultured on dishes coated for at least two hours with Matrigel (BD Biosciences, Franklin Lakes, N.J.). hES cell media containing 80% knockout Dulbecco's modified eagle medium (DMEM), 20% knockout serum replacer, 1% nonessential amino acids, 1% penicillin/streptomycin (100 U per 100 μg/ml), 2 mM L-glutamine, (all from Invitrogen, Carlsbad, Calif.) and 4 ng/ml basic fibroblast growth factor (bFGF, ReproCELL, San Jose, Calif.) was pre-conditioned by culture with inactivated mouse embryonic fibroblasts (MEF; Millipore, Billerica, Mass.) and collected every two days. hES cell lines were cultured with human conditioned media (HuCM) supplemented with 4 ng/ml bFGF and a heterocyclic compound of a certain concentration. hES cells were maintained by weekly manual passaging or bulk passaging using 1 mg/ml Collagenase IV (Invitrogen). hES cells were plated for experiments using Accutase (Fisher, Pittsburgh, Pa.) and plated at a density of 26,000 cells/cm^2.
Toxicity Testing hES cells were plated as above and subjected to increasing concentrations of the mitochondrial inhibitors for 72 hr of culture. After 72 hr the cells were fixed in 2.0% formaldehyde and stained for 30 min with 0.05% crystal violet in distilled water. Stained cells were rinsed twice with distilled water and imaged using bright field microscopy.
These compounds were initially tested at concentrations from 0.1 mM to 50 mM.

[5] = Solubility in the culture media; assay type: physicochemical; conditions: hES cell culture media
Excerpt: Compound 2 was not soluble in the culture media and was not tested further.

[6] = Homo sapiens, 1 mM, normalized to β-ACTIN, read-out: Expression relative to control, OCT4

SMILES: O=C(O)Cc1nnn[nH]1 [Compound 11, 2-(1H-tetrazol-5-yl)acetic acid]
- fold induction at 1000 µM (OCT4; [6]): 1.07
- fold induction at 1000 µM (SURVIVIN): 0.975
- fold induction at 1000 µM (NANOG [1]): 0.849
- One of the genes overexpressed by at least 10% (SURVIVIN, OCT4 and NANOG; 1 mM): No
- change in expression of SURVIVIN, OCT4 and NANOG following treatment (FIG. 2) (SURVIVIN, OCT4 and NANOG; 1 mM): increase in OCT4 and no other genes

SMILES: CCCCCC[C@H]1C(=O)O[C@H](C)[C@H](NC(=O)c2cccc(NC=O)c2O)C(=O)O[C@@H](C)[C@@H]1OC(=O)CC(C)C [Antimycin A, [(2R,3S,6S,7R,8R)-3-[(3-formamido-2-hydroxybenzoyl)amino]-8-hexyl-2,6-dimethyl-4,9-dioxo-1,5-dioxonan-7-yl] 3-methylbutanoate]
- effect on expression of pluripotency factor NANOG (NANOG [2]): increase in the expression of pluripotency factor NANOG

SMILES: Cc1cncs1 [Compound 4, 5-methylthiazole]
- Inhibition/Reversibility in mitochondrial inhibition [3]: reversible mitochondrial inhibitors and Yes
- mitochondrial inhibition IC50 [3]: 23.5 mg/mL
- nontoxic concentration (no toxicity up to) [4]: ≤ 10 mM
- fold induction at 1000 µM (OCT4; [6]): 1.13
- fold induction at 1000 µM (SURVIVIN): 1.27
- fold induction at 1000 µM (NANOG [1]): 1.14
- One of the genes overexpressed by at least 10% (SURVIVIN, OCT4 and NANOG; 1 mM): Yes
- change in expression of SURVIVIN, OCT4 and NANOG following treatment (FIG. 2) (SURVIVIN, OCT4 and NANOG; 1 mM): increased expression of all three genes

SMILES: Cc1nnn[nH]1 [Compound 10, 5-methyl-1H-tetrazole]
- fold induction at 1000 µM (OCT4; [6]): 0.977
- fold induction at 1000 µM (SURVIVIN): 0.981
- fold induction at 1000 µM (NANOG [1]): 0.778
- One of the genes overexpressed by at least 10% (SURVIVIN, OCT4 and NANOG; 1 mM): No
- change in expression of SURVIVIN, OCT4 and NANOG following treatment (FIG. 2) (SURVIVIN, OCT4 and NANOG; 1 mM): decreased expression of all three genes

SMILES: O=C(O)CCCC[C@H]1CCSS1 (single isomer, unassigned) [Compound 3, 5-[(3R or 3S)-dithiolan-3-yl]pentanoic acid]
- mitochondrial inhibition IC50 [3]: 37.1 mg/mL
- fold induction at 1000 µM (OCT4; [6]): 1.85
- fold induction at 1000 µM (SURVIVIN): 1.11
- fold induction at 1000 µM (NANOG [1]): 0.717
- One of the genes overexpressed by at least 10% (SURVIVIN, OCT4 and NANOG; 1 mM): Yes
- change in expression of SURVIVIN, OCT4 and NANOG following treatment (FIG. 2) (SURVIVIN, OCT4 and NANOG; 1 mM): increased expression of SURVIVIN and OCT4 but not NANOG

SMILES: CSc1nnn[nH]1 [Compound 12, 5-methylsulfanyl-1H-tetrazole]
- Inhibition/Reversibility in mitochondrial inhibition [3]: reversible mitochondrial inhibitors and Yes
- mitochondrial inhibition IC50 [3]: 14.5 mg/mL
- fold induction at 1000 µM (OCT4; [6]): 1.16
- fold induction at 1000 µM (SURVIVIN): 1.05
- fold induction at 1000 µM (NANOG [1]): 0.844
- One of the genes overexpressed by at least 10% (SURVIVIN, OCT4 and NANOG; 1 mM): Yes
- change in expression of SURVIVIN, OCT4 and NANOG following treatment (FIG. 2) (SURVIVIN, OCT4 and NANOG; 1 mM): increased expression of SURVIVIN and OCT4 but not NANOG

- solubility in the culture media [5]: not soluble
SMILES: c1ccc(CSc2nnn[nH]2)cc1 [Compound 2, 5-benzylsulfanyl-1H-tetrazole]

SMILES: Nc1nnn[nH]1 [Compound 7, 1H-tetrazol-5-amine]
- Inhibition/Reversibility in mitochondrial inhibition [3]: reversible mitochondrial inhibitors and Yes
- mitochondrial inhibition IC50 [3]: 8.5 mg/mL
- OCT4 overexpression (OCT4; 1 mM, vs control): at least 50%
- fold induction at 1000 µM (OCT4; [6]): 1.53
- fold induction at 1000 µM (SURVIVIN): 1.73
- fold induction at 1000 µM (NANOG [1]): 0.917
- One of the genes overexpressed by at least 10% (SURVIVIN, OCT4 and NANOG; 1 mM): Yes
- change in expression of SURVIVIN, OCT4 and NANOG following treatment (FIG. 2) (SURVIVIN, OCT4 and NANOG; 1 mM): increased expression of SURVIVIN and OCT4 but not NANOG

SMILES: CCOC(=O)Cc1nnn[nH]1 [Compound 6, ethyl 2-(1H-tetrazol-5-yl)acetate]
- mitochondrial inhibition IC50 [3]: 100 mg/mL
- fold induction at 1000 µM (OCT4; [6]): 1.34
- fold induction at 1000 µM (SURVIVIN): 1.75
- fold induction at 1000 µM (NANOG [1]): 0.867
- One of the genes overexpressed by at least 10% (SURVIVIN, OCT4 and NANOG; 1 mM): Yes
- change in expression of SURVIVIN, OCT4 and NANOG following treatment (FIG. 2) (SURVIVIN, OCT4 and NANOG; 1 mM): increased expression of SURVIVIN and OCT4 but not NANOG

SMILES: Cn1c(-c2ccccc2)cnc1S [Compound 5, 3-methyl-4-phenyl-1H-imidazole-2-thione]
- mitochondrial inhibition IC50 [3]: 5.4 mg/mL
- nontoxic concentration (no toxicity up to) [4]: at least 5 mM
- fold induction at 1000 µM (OCT4; [6]): 1.5
- fold induction at 1000 µM (SURVIVIN): 1.44
- fold induction at 1000 µM (NANOG [1]): 1.16
- One of the genes overexpressed by at least 10% (SURVIVIN, OCT4 and NANOG; 1 mM): Yes
- change in expression of SURVIVIN, OCT4 and NANOG following treatment (FIG. 2) (SURVIVIN, OCT4 and NANOG; 1 mM): increased expression of all three genes

SMILES: Cc1ncsc1CCOC(=O)C[P+](c1ccccc1)(c1ccccc1)c1ccccc1.[Br-] [Compound 1, [2-[2-(4-methylthiazol-5-yl)ethoxy]-2-oxo-ethyl]-triphenyl-phosphonium bromide]
- Inhibition/Reversibility in mitochondrial inhibition [3]: No
- mitochondrial inhibition IC50 [3]: 8.8 mg/mL
- toxicity at the initially tested concentrations ([4]; initial range 0.1 mM to 50 mM): toxic at all concentrations tested initially
- nontoxic / well tolerated concentration (up to) ([4]; retested at 0.1 to 100 μM): up to 10 μM
- fold induction at 10 µM (OCT4; Homo sapiens, 10 μM, normalized to β-ACTIN, read-out: Expression relative to control, OCT4): 0.9
- fold induction at 10 µM (SURVIVIN; 10 μM): 0.892
- fold induction at 10 µM (NANOG [1]; 10 μM): 0.902
- One of the genes overexpressed by at least 10% (SURVIVIN, OCT4 and NANOG; 10 μM): No
- change in expression of SURVIVIN, OCT4 and NANOG following treatment (FIG. 2) (SURVIVIN, OCT4 and NANOG; 10 μM): decreased expression of all three genes

SMILES: Brc1nn[nH]c1Br [Compound 9, 4,5-dibromo-1H-triazole]
- toxicity at 1 mM ([4]; 1 mM): minimal toxicity
- nontoxic concentration (no toxicity up to) [4]: up to 0.1 mM
